From patent US12600742B2, “Markers, conjugates, compositions and methods for hypoxia imaging, mapping, and therapy” (WWIKY BIOSCIENCES INC., priority 2017, dated 2026)

How the values were obtained:
FaDu cells [1] = assay: Comparison of hypoxia selective uptake of ACN and Pimonidazole in vitro; assay type: cell-based, human
Experimental: FaDu cells were grown on coverslips (as described above) and treated simultaneously with 100 μM ACN and 100 μM Pimonidazole. The cells were subsequently exposed to normoxic (20% Oxygen), hypoxic (1% Oxygen) or anoxic (0% Oxygen) conditions for 6 hours, and fixed in 2% PFA. Standard Pimonidazole IHC was performed as described elsewhere using an Alexafluor 647 labelled secondary antibody. Click chemistry was performed as previously described using an Alexafluor 555 conjugated alkyne followed by nuclear staining with Hoechst. Mounted coverslips on glass slides were imaged as described earlier.

FaDu cells [2] = assay: Cell proliferation assay (cell counts); assay type: cell-based, human; conditions: 100 μM, alone or in combination with 5 Gy IR
Experimental: (§1) Human head and neck squamous cell carcinoma cell line, FaDu, was purchased from American Type Culture Collection (ATCC HTB-43). FaDu cells were cultured in Dulbecco's Modified Eagle's medium/Nutrient Mixture F-12 media supplemented with 10% Fetal bovine serum, 2 mM L-glutamine and 10% Penicillin Streptomycin. Cells were cultured in a humidified incubator at 37° C. with 5% CO2.
(§2) Hypoxic cytotoxicity of ACN was evaluated using colony formation assay. FaDu cells were seeded on 60 mm glass petri dishes (in triplicates) at a density of 300 cells per plate. Cells were allowed to attach for 24 hours, followed by treatment with 1 μM, 10 μM and 100 μM of freshly dissolved ACN for 24 hours under normoxia (20% O2) or hypoxia (1% O2 and <0.1% O2); 100 μM DMSO was used as vehicle control. Cells were allowed to grow and form colonies for 14 days. Colonies were stained with crystal violet, counted and plotted as percentage of vehicle conditions; error bars show standard error of the means. […] Colonies were stained with crystal violet, counted and plotted as percentage of vehicle (DMSO) controls; error bars represent standard error of the means. […] 1 hr following IR, cells were trypsinized, counted, and seeded on 24 well plates in triplicates at a density of 50,000 cells per well. Cells were trypsinized 1, 3, 5 and 7 days after re-plating, and counted with a Z2 coulter particle counter.

FaDu xenograft tumors = assay: Assessment of ACN as a hypoxia tracer in tumor-bearing mice; assay type: in vivo, BALB/c nude mice; conditions: 80 mg/Kg intraperitoneally, 2 hours post-injection
Experimental: Female BALB/c nude mice (Charles River Laboratories) aged 6 weeks were used and cared for according to the CCAC guidelines. We used a biflanked sub-cutaneous tumor model where the tumor in the left flank was untreated (control) and the tumor in the right flank served as the ‘treatment’ group. We subcutaneously injected 6×10^6 FaDu cells in 0.1 ml of sterile 0.9% NaCl into the upper right flank to form palpable tumors. The tumors were measured daily until the volume reached 10 mm3. The mice were divided into 4 groups and injected intraperitoneally in 0.15 ml 0.9% saline with: 1-80 mg/Kg ACN, 2-80 mg/Kg pimonidazole (Hypoxyprobe), 3-80 mg/Kg ACN:pimonidazole in a 1:1 ratio and 4-0.9% saline control. Mice were sacrificed 2 hours post-injection, tumors removed and frozen in OCT. Seven micron serial sections were taken of each tumor, dried and stored at −80° C.
Tissue sections were air dried for 25 minutes, fixed for 5 minutes in −20° C. acetone; air dried 25 minutes and blocked in PBS with 1% BSA for 20 minutes. Sections were incubated with primary antibodies for small vessel endothelium [1:100 rabbit anti-CD34 (abcam)] or hypoxia [1:100 rabbit anti-pimonidazole Hypoxyprobe)] for 2 hours at room temperature, followed by 3 five minute washes in 1×PBS. […]

FaDu cells [3] = assay: Retention profile of ACN in hypoxic cells following re-oxygenation; assay type: cell-based, human; conditions: 100 μM
Experimental: After bioreductive activation under hypoxia, nitroimidazole reactive species (nitroradical anion) bind to cellular nucleophiles to form drug-protein adducts. To evaluate how fast these adducts are metabolized, we treated FaDu cells with 100 μM of ACN under normoxia or anoxia for 6 hours, and exposed them to subsequent re-oxygenation. Cells were fixed after 0 hr, 1 hr, 3 hr, 6 hr and 18 hr of re-oxygenation. Click chemistry was performed on fixed cells as previously described.

FaDu cells [4] = assay: Hypoxic cytotoxicity of ACN, colony formation assay; assay type: cell-based, human; conditions: concentrations up to 100 μM, 24 h, normoxia (20% O2) or hypoxia (1% O2 and <0.1% O2)
Experimental: as §1, §2

FaDu cells [5] = assay: In vitro inverse oxygen dependent entrapment of ACN, click chemistry fluorescence; assay type: cell-based, human
Experimental: The Click-IT reaction cocktail (Molecular Probes) was made up according to the manufacturer's directions using a 1:5000 dilution of the 2 mg/ml Alexafluor 555 or 594 conjugated alkyne stock (Molecular Probes). The reaction cocktail was used within 15 minutes of preparation. All reactions were done at room temperature in the dark.
Subconfluent FaDu cells were trypsinized, and approximately 3-5×10^5 cells were seeded in 35 mm tissue culture plates containing sterilized […] glass coverslips. Cells were allowed to grow overnight, and treated with different concentrations of ACN (1 μM, 10 μM and 100 μM) under normoxia (20% Oxygen), hypoxia (1% Oxygen) or anoxia (0% Oxygen) for 6 hours. Hypoxia and anoxia were achieved using an in house de-gassing system. Post-treatment, all steps were carried out at room temperature. Cells were washed three to five times with 1×PBS, fixed in 2% paraformaldehyde (PFA) for 20 minutes, and washed again three times with 1×PBS. The fixed cells were then blocked and permeabilized with 1% BSA in 1×PBS containing 0.1% Triton-100 for 20 minutes, followed by incubation with click cocktail containing Alexafluor 594 conjugated alkyne for 30 minutes. Subsequently cells were washed and stained with Hoechst 33342 (1:10000 dilution in PBS, Life Technologies) for 5 minutes before mounting them on glass slides (Fluoroshield Mounting Medium, abcam). The prepared slides were kept at 4° C. until imaged. Images were obtained by with a Plan-Apochromat 40X/1.3 Oil DIC lens on a Zeiss 710 confocal microscope using Zen 2011 software.

FaDu cells [6] = assay: Radiosensitization potential of ACN, colony formation assay with 5 Gy IR; assay type: cell-based, human; conditions: 100 μM ACN and 5 Gy IR, normoxia or hypoxia (<0.1% O2)
Experimental: as §1, §2

SMILES: [N-]=[N+]=NCC1OC(n2ccnc2[N+](=O)[O-])[C@H](O)[C@H]1O (some centres unmarked) [ACN, 5’-azido-arabinofuranosyl-2-nitroimidazole]
- staining detected by oxygen condition (FaDu cells [1]; 100 μM of each compound, 6 h): detected in oxygen deprived cells
- sub-cellular distribution of signal (FaDu cells [1]; hypoxic <0.1% O2 cells, 100 μM): higher nuclear signal
- cell counts compared to vehicle control (FaDu cells [2]): did not generate significant difference in cell counts
- localization in tumor sections (FaDu xenograft tumors): co-localizes in hypoxic regions of FaDu xenograft tumors
- time after re-oxygenation up to which signal for ACN-protein adducts could be detected (FaDu cells [3]; 6 h anoxia then re-oxygenation): up to 6 hours
- signal after 18 hours re-oxygenation (FaDu cells [3]; 18 hours re-oxygenation): very faint signal
- hypoxia-selective cytotoxicity (colony formation) (FaDu cells [4]): did not show any hypoxia-selective cytotoxicity
- entrapment in cells versus oxygen level (click signal) (FaDu cells [5]; 1, 10, 100 μM, 6 h, normoxia, hypoxia, <0.1% O2): entrapped in FaDu cells in an inverse oxygen dependent manner
- dose dependence of entrapment in hypoxic cells (FaDu cells [5]; 1-100 μM, hypoxic cells): dose dependent manner
- entrapment in well oxygenated or normoxic cells (FaDu cells [5]; normoxia (20% Oxygen)): minimal to almost no entrapment
- hypoxic radiosensitization (colony formation) (FaDu cells [6]): No hypoxic radiosensitization was observed
